The source of these data is US10035805B2, “Tricyclic triazolic compounds” (LABORATORIOS DEL DR. ESTEVE S.A., priority 2014, dated 2018).

Structures can show the parent of a compound that is named as a salt. Bounds are passed on as bounds.

In this test the target is T1, sigma-1 receptor (Cavia porcellus, UniProt Q60492).
T1 construct: Guinea pig brains were homogenized in 10 vols; (w/v) of Tris-HCl 50 mM 0.32 M sucrose; from tissue; host or cells: guinea pig brain membranes
T1 sequence (Q60492 whole entry): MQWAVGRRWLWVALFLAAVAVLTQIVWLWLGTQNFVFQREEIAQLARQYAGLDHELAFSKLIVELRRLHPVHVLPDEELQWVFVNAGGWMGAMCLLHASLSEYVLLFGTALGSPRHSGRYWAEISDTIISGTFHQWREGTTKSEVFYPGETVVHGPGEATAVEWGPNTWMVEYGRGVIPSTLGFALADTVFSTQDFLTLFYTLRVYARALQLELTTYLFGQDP
Briefly: Sigma-1 receptor radioligand binding assay with [3H]-(+)-pentazocine in guinea pig brain membranes. Conditions: radioligand [3H]-(+)-pentazocine at 5.0 nM, 150 min at 37° C., nonspecific binding with 1 μM haloperidol. The protocol: Brain membrane preparation and binding assays for the al-receptor were performed as described (DeHaven-Hudkins, D. L., L. C. Fleissner, and F. Y. Ford-Rice, 1992, Characterization of the binding of [^3H](+)pentazocine to a recognition sites in guinea pig brain, Eur. J. Pharmacol. 227, 371-378) with some modifications. Guinea pig brains were homogenized in 10 vols. (w/v) of Tris-HCl 50 mM 0.32 M sucrose, pH 7.4, with a Kinematica Polytron PT 3000 at 15000 r.p.m. for 30 s. The homogenate was centrifuged at 1000 g for 10 min at 4° C. and the supernatants collected and centrifuged again at 48000 g for 15 min at 4° C. The pellet was resuspended in 10 volumes of Tris-HCl buffer (50 mM, pH 7.4), incubated at 37° C. for 30 min, and centrifuged at 48000 g for 20 min at 4° C. Following this, the pellet was resuspended in fresh Tris-HCl buffer (50 mM, pH 7.4) and stored on ice until use.
The radioligand used was [^3H]-(+)-pentazocine at 5.0 nM and the final volume was 200 μl. The incubation was initiated with the addition of 100 μl of membrane at a final tissue concentration of approximately 5 mg tissue net weight/mL and the incubation time was 150 m. at 37° C. After incubation, the membranes were collected onto pretreated glass fiber filterplate (MultiScreen-FC, Millipore), with polyethylenimine 0.1%. The filters were washed two times with 200 μl of washing buffer (50 mM Tris Cl, pH=7.4) and then 25 μl of Ecoscint H liquid scintillation cocktail were added. Microplates were allowed to set for several hours and then quantified by liquid scintillation spectrophotometry (1450 Microbeta, Wallac). Nonspecific binding was determined with 1 μM haloperidol.
Consider `c1ccc(-c2nnn3c2CN[C@@H]2CN(CC4CCOCC4)C[C@H]23)cc1` [Example 27, (5aR,8aR)-3-phenyl-7-((tetrahydro-2H-pyran-4-yl)methyl)-5,5a,6,7,8,8a-hexahydro-4H-pyrrolo[3,4-e][1,2,3]triazolo[1,5-a]pyrazine hydrochloride], for which the inhibition constant Ki lay in the range of 0.1 to 0.5 µM.
For `c1ccc(CN2C[C@@H]3[C@H](C2)N(CC2CC2)CCc2c(-c4ccccc4)nnn23)cc1` (racemic) [Example 32, (rac) (6a,9a-cis)-8-benzyl-6-(cyclopropylmethyl)-3-phenyl-4,5,6,6a,7,8,9,9a-octahydropyrrolo[3,4-b][1,2,3]triazolo[1,5-d][1,4]diazepine hydrochloride] the value was less than 0.1 µM; for `CC(=O)N1Cc2c(-c3ccccc3)nnn2[C@@H]2CN(Cc3ccccc3)C[C@H]21` (racemic) [Example 4, (rac) 1-((5a,8a-trans)-7-benzyl-3-phenyl-6,7,8,8a-tetrahydro-4H-pyrrolo[3,4-e][1,2,3]triazolo[1,5-a]pyrazin-5(5aH)-yl)ethanone hydrochloride], 0.1 to 0.5 µM; for `CCCN1CCc2c(-c3ccccc3)nnn2[C@@H]2CN(Cc3ccccc3)C[C@@H]21` (racemic) [Example 31, (rac) (6a,9a-cis)-8-benzyl-3-phenyl-6-propyl-4,5,6,6a,7,8,9,9a-octahydropyrrolo[3,4-b][1,2,3]triazolo[1,5-d][1,4]diazepine hydrochloride], less than 0.1 µM.
Regarding `Fc1ccc(CN2C[C@@H]3NCc4c(-c5ccccc5)nnn4[C@H]3C2)cc1` [Example 23, (5aS,8aS)-7-(4-fluorobenzyl)-3-phenyl-5,5a,6,7,8,8a-hexahydro-4H-pyrrolo[3,4-e][1,2,3]triazolo[1,5-a]pyrazine hydrochloride], the inhibition constant (Ki) was greater than 0.5 µM.
For `c1ccc(CN2C[C@H]3NCCc4c(-c5ccccc5)nnn4[C@H]3C2)cc1` [Example 34, (6aR,9aS)-8-benzyl-3-phenyl-4,5,6,6a,7,8,9,9a-octahydropyrrolo[3,4-b][1,2,3]triazolo[1,5-d][1,4]diazepine hydrochloride] the value was 0.1 to 0.5 µM; for `Fc1ccc(CN2C[C@@H]3[C@@H](C2)NCc2c(-c4ccccc4)nnn23)cc1` [Example 24, (5aR,8aR)-7-(4-fluorobenzyl)-3-phenyl-5,5a,6,7,8,8a-hexahydro-4H-pyrrolo[3,4-e][1,2,3]triazolo[1,5-a]pyrazine hydrochloride], less than 0.1 µM.
`CN1Cc2c(-c3ccccc3)nnn2[C@@H]2CN(Cc3ccccc3)C[C@@H]21` (racemic) [Example 12, (rac) (5a,8a-cis)-7-benzyl-5-methyl-3-phenyl-5,5a,6,7,8,8a-hexahydro-4H-pyrrolo[3,4-e][1,2,3]triazolo[1,5-a]pyrazine] gave an inhibitory constant (Ki) of less than 0.1 µM.
For `Fc1ccc(CN2C[C@@H]3[C@@H](C2)NCc2c(-c4ccccc4)nnn23)cc1` (racemic) [Example 8, (rac) (5a,8a-trans)-7-(4-fluorobenzyl)-3-phenyl-5,5a,6,7,8,8a-hexahydro-4H-pyrrolo[3,4-e][1,2,3]triazolo[1,5-a]pyrazine hydrochloride] the value was less than 0.1 µM; for `c1ccc(CN2C[C@@H]3NCc4c(-c5ccccc5)nnn4[C@@H]3C2)cc1` [Example 15, (5aS,8aR)-7-benzyl-3-phenyl-5,5a,6,7,8,8a-hexahydro-4H-pyrrolo[3,4-e][1,2,3]triazolo[1,5-a]pyrazine], less than 0.1 µM.
Next, `CN1C(=O)c2c(-c3ccccc3)nnn2[C@@H]2CN(Cc3ccccc3)C[C@@H]21` (racemic) [Example 37, (rac)-(5a,8a-cis)-7-benzyl-5-methyl-3-phenyl-5,5a,6,7,8,8a-hexahydro-4H-pyrrolo[3,4-e][1,2,3]triazolo[1,5-a]pyrazin-4-one]: greater than 0.5 µM.
`CCCN1C(=O)c2c(-c3ccccc3)nnn2[C@@H]2CN(Cc3ccccc3)C[C@@H]21` (racemic) [Example 5, (rac)-(5a,8a-cis)-7-benzyl-3-phenyl-5-propyl-5,5a,6,7,8,8a-hexahydro-4H-pyrrolo[3,4-e][1,2,3]triazolo[1,5-a]pyrazin-4-one]: the Ki was greater than 0.5 µM.
In turn, `CCCCCN1C[C@@H]2[C@@H](C1)n1nnc(-c3ccccc3)c1CN2CCC` (racemic) [Example 11, (rac) (5a,8a-trans)-7-pentyl-3-phenyl-5-propyl-5,5a,6,7,8,8a-hexahydro-4H-pyrrolo[3,4-e][1,2,3]triazolo[1,5-a]pyrazine hydrochloride] had an inhibition constant (Ki) of less than 0.1 µM.
Compound `c1ccc(CN2C[C@@H]3NCCc4c(-c5ccccc5)nnn4[C@@H]3C2)cc1` [Example 35, (6aS,9aR)-8-benzyl-3-phenyl-4,5,6,6a,7,8,9,9a-octahydropyrrolo[3,4-b][1,2,3]triazolo [1,5-d][1,4]-diazepine hydrochloride] returned an inhibitory constant (Ki) of less than 0.1 µM.
`c1ccc(CN2C[C@@H]3NCc4c(-c5ccccc5)nnn4[C@H]3C2)cc1` [Example 21, (5aS,8aS)-7-benzyl-3-phenyl-5,5a,6,7,8,8a-hexahydro-4H-pyrrolo[3,4-e][1,2,3]triazolo[1,5-a]pyrazine hydrochloride] showed an inhibition constant Ki greater than 0.5 µM.
Next, `CCC(=O)N1CCc2c(-c3ccccc3)nnn2[C@@H]2CN(Cc3ccccc3)C[C@@H]21` (racemic) [Example 33, (rac) 1-((6a,9a-cis)-8-benzyl-3-phenyl-4,5,7,8,9,9a-hexahydropyrrolo[3,4-b][1,2,3]triazolo[1,5-d][1,4]diazepin-6(6aH)-yl)propan-1-one hydrochloride]: 0.1 to 0.5 µM; `O=C1N[C@H]2CNC[C@H]2n2nnc(-c3ccccc3)c21` (racemic) [Example 36, (rac)-(5a,8a-cis)-3-phenyl-5,5a,6,7,8,8a-hexahydro-4H-pyrrolo[3,4-e][1,2,3]triazolo[1,5-a]pyrazin-4-one hydrochloride]: greater than 0.5 µM.
Compound `O=C1N[C@H]2CN(Cc3ccccc3)C[C@H]2n2nnc(-c3ccccc3)c21` (racemic) [Example 2, (rac)-(5a,8a-cis)-7-benzyl-3-phenyl-5,5a,6,7,8,8a-hexahydro-4H-pyrrolo[3,4-e][1,2,3]triazolo[1,5-a]pyrazin-4-one] yielded an inhibition constant Ki greater than 0.5 µM.
Next, `Clc1ccc(CN2C[C@@H]3[C@@H](C2)NCc2c(-c4ccccc4)nnn23)cc1` [Example 25, (5aR,8aR)-7-(4-chlorobenzyl)-3-phenyl-5,5a,6,7,8,8a-hexahydro-4H-pyrrolo[3,4-e][1,2,3]triazolo[1,5-a]pyrazine hydrochloride]: less than 0.1 µM; `CCCN1Cc2c(-c3ccccc3)nnn2[C@@H]2CNC[C@H]21` (racemic) [Example 10, (rac) (5a,8a-trans)-3-phenyl-5-propyl-5,5a,6,7,8,8a-hexahydro-4H-pyrrolo[3,4-e][1,2,3]triazolo[1,5-a]pyrazine hydrochloride]: greater than 0.5 µM; `c1ccc(-c2nnn3c2CN[C@@H]2CN(C4CCOCC4)C[C@H]23)cc1` (racemic) [Example 19, (rac) (5a,8a-trans)-3-phenyl-7-(tetrahydro-2H-pyran-4-yl)-5,5a,6,7,8,8a-hexahydro-4H-pyrrolo[3,4-e][1,2,3]triazolo[1,5-a]pyrazine hydrochloride]: greater than 0.5 µM.
Next, `c1ccc(CN2C[C@@H]3[C@@H](C2)NCc2c(-c4ccccc4)nnn23)cc1` [Example 22, (5aR,8aR)-7-benzyl-3-phenyl-5,5a,6,7,8,8a-hexahydro-4H-pyrrolo[3,4-e][1,2,3]triazolo[1,5-a]pyrazine hydrochloride]: less than 0.1 µM.
For `CS(=O)(=O)N1Cc2c(-c3ccccc3)nnn2[C@@H]2CN(Cc3ccccc3)C[C@H]21` (racemic) [Example 20, (rac) (5a,8a-trans)-7-benzyl-5-(methylsulfonyl)-3-phenyl-5,5a,6,7,8,8a-hexahydro-4H-pyrrolo[3,4-e][1,2,3]triazolo[1,5-a]pyrazine hydrochloride] the value was 0.1 to 0.5 µM; for `c1ccc(-c2nnn3c2CN[C@@H]2CN(CC4CC4)C[C@H]23)cc1` (racemic) [Example 18, (rac) (5a,8a-trans)-7-(cyclopropyl-methyl)-3-phenyl-5,5a,6,7,8,8a-hexahydro-4H-pyrrolo[3,4-e][1,2,3]triazolo[1,5-a]pyrazine hydrochloride], 0.1 to 0.5 µM.
Take `CCCN1Cc2c(-c3ccccc3)nnn2[C@@H]2CN(Cc3ccccc3)C[C@H]21` (racemic) [Example 9, (rac) (5a,8a-trans)-7-benzyl-3-phenyl-5-propyl-5,5a,6,7,8,8a-hexahydro-4H-pyrrolo[3,4-e][1,2,3]triazolo[1,5-a]pyrazine hydrochloride]: the inhibition constant Ki was less than 0.1 µM.

The term Ki denotes the equilibrium dissociation constant of an inhibitor or competing ligand from its target.
